The data set can be described thus: Phase I open-label, parallel-group, single oral dose pharmacokinetic study of dorzagliatin in ESRD and healthy subjects. In kind it is in vivo, human. To be noted: single 25 mg oral dose; for AUC(0-inf) / AUC(0-t) / Cmax: human, po, 25 mg; for Cmax: read-out: Cmax, LS mean. The source says: This phase I study was to access the pharmacokinetics and safety of a single dose of dorzagliatin in renally impaired and heathy subjects. The study was divided into two phases: Phase 1 having two groups (P1 and H) and Phase 2 having three groups (P2, P3, and P4). Phase 2 would start after the completion of Phase 1 and determining an increase of ≥100% in the average AUC (AUClast or AUCinf) of the ESRD subjects than that of the healthy subjects in Phase 1. The ESRD subjects of Group P1 were matched closely with the healthy subjects as to their sexes, ages (±5 yrs), and BMIs (±15%).
In Phase 1, eligible subjects were admitted to a clinical research center (CRC) on Day −2 or −1. On Day −1, the subjects had no additional food after a standard dinner for at least 10 h. In the morning of Day 1, the subjects received dorzagliatin (25 mg) orally with empty stomach. […] Blood samples were collected at the following time points: within 60 min pre-dose; and at 0.25, 0.5, 1, 1.5, 2, 2.5, 3, 4, 6, 8, 12, 24, 36, 48, and 72 h post-dose. Urine samples for the pharmacokinetic (PK) analysis were collected at the following time points: within 60 min pre-dose; and at 0˜4, 4˜8, 8˜12, 12˜24, 24˜36, 36˜48, and 48˜72 h post-dose. The samples were analyzed using LC-MS/MS. The plasma concentration-time data for dorzagliatin were analyzed using a non-compartmental model to obtain PK parameters, including Cmax, AUClast, AUCinf, Cmax,u, AUClast,u, and AUCinf,u. An ANOVA analysis was performed on the data between H and P1 groups.

Read-outs that look alike come from different tables or passages of the source.

In the case of `CC(C)C[C@@H](C(=O)Nc1ccn(C[C@@H](O)CO)n1)N1CC(Oc2ccccc2Cl)=CC1=O` [dorzagliatin, (S)-2-(4-(2-chlorophenoxy)-2-oxo-2,5-dihydro-1H-pyrrol-1-yl)-N-(1-((R)-2,3-dihydroxypropyl)-1H-pyrazol-3-yl)-4-methylpentanamide], the “AUCinf in ESRD subjects (Group P1) compared to healthy subjects (Group H), in words” value was “substantially the same” and the “Cmax in ESRD subjects (Group P1) compared to healthy subjects (Group H), in words” value is “slightly decreased”. Besides, where the note is “Group H (healthy), fasted”, the “Cmax, u, LS mean” value is on record as 29.5 ng/mL. Moreover, the “AUClast, LS mean” value (Group H (healthy), fasted, plasma) worked out at 1857 ng·h/mL. In addition, for the setting “Group P1 (ESRD), fasted”, the “Cmax, u, LS mean” value is recorded as 27.5 ng/mL. Besides, under “plasma, Group H (healthy), fasted, plasma, read-out: AUCinf, LS mean”, the AUC(0-inf) came to 1890 ng·h/mL. Moreover, under “plasma, Group H (healthy), fasted, read-out: AUCinf, u, LS mean”, the AUC(0-inf) was determined as 126 ng·h/mL. In addition, under “plasma, Group H (healthy), fasted, read-out: AUClast, u, LS mean”, the AUC(0-t) turned out to be 124 ng·h/mL. The Cmax – broadly, the peak of the concentration-time curve – (plasma, Group H (healthy, eGFR ≥90), fasted, plasma) was found to be 442 ng/mL. Besides, the AUC(0-inf) (plasma, Group P1 (ESRD), fasted, plasma, read-out: AUCinf, LS mean) is 2070 ng·h/mL. In addition, the AUC(0-t) (plasma, Group P1 (ESRD), fasted, plasma, read-out: AUClast, LS mean) amounted to 2060 ng·h/mL. For the same compound, the AUC(0-inf) (plasma, Group P1 (ESRD), fasted, read-out: AUCinf, u, LS mean) was 163 ng·h/mL. For the same compound, the AUC(0-t) (plasma, Group P1 (ESRD), fasted, read-out: AUClast, u, LS mean) was found to be 162 ng·h/mL. For the same compound, under “plasma, Group P1 (ESRD, eGFR <15, no dialysis), fasted, plasma”, the Cmax is 356 ng/mL. The “Cmax, u GMR (P1/H)” value (ratio ESRD/healthy) is reported as 0.93. Under “ANOVA, preset criterion AUC increase >100% not met”, the “Difference in AUC between Groups H and P1, in words” value was “no significant difference”.

For the origin of these results see patent publication US11857536B2, “Glucokinase activator for treating diabetes with renal impairment” (HUA Medicine (Shanghai) Ltd., priority 2020, dated 2024).
